What was measured:
Details in all cases: 72 h
Caco-2 [1] = experiment: cell viability relative to DMSO; higher = less toxic
Calu-3 [2] = experiment: as above
HepG2 [3] = experiment: as above
U2OS [4] = experiment: as above
Vero E6 [5] = experiment: as above
Caco-2 [6] = experiment: relative viability EC50 (midpoint between 100% and the lowest measured viability); higher = less toxic
Calu-3 [7] = experiment: as above
HepG2 [8] = experiment: as above
U2OS [9] = experiment: as above
Vero E6 [10] = experiment: as above
Caco-2 [11] = experiment: drug sensitivity score (DSS) for viability; higher = more toxic; extreme values may be limits of the assay
Calu-3 [12] = experiment: as above
HepG2 [13] = experiment: as above
U2OS [14] = experiment: as above
Vero E6 [15] = experiment: as above

SMILES | cell viability (Caco-2 [1]; 1 nM) | cell viability (Caco-2 [1]; 10 nM) | cell viability (Caco-2 [1]; 100 nM) | cell viability (Caco-2 [1]; 1000 nM) | cell viability (Caco-2 [1]; 10000 nM) | cell viability (Calu-3 [2]; 1 nM) | cell viability (Calu-3 [2]; 10 nM) | cell viability (Calu-3 [2]; 100 nM) | cell viability (Calu-3 [2]; 1000 nM) | cell viability (Calu-3 [2]; 10000 nM) | cell viability (HepG2 [3]; 1 nM) | cell viability (HepG2 [3]; 10 nM) | cell viability (HepG2 [3]; 100 nM) | cell viability (HepG2 [3]; 1000 nM) | cell viability (HepG2 [3]; 10000 nM) | cell viability (U2OS [4]; 1 nM) | cell viability (U2OS [4]; 10 nM) | cell viability (U2OS [4]; 100 nM) | cell viability (U2OS [4]; 1000 nM) | cell viability (U2OS [4]; 10000 nM) | cell viability (Vero E6 [5]; 1 nM) | cell viability (Vero E6 [5]; 10 nM) | cell viability (Vero E6 [5]; 100 nM) | cell viability (Vero E6 [5]; 1000 nM) | cell viability (Vero E6 [5]; 10000 nM) | relative viability EC50 (Caco-2 [6]) | relative viability EC50 (Calu-3 [7]) | relative viability EC50 (HepG2 [8]) | relative viability EC50 (U2OS [9]) | relative viability EC50 (Vero E6 [10]) | drug sensitivity score (Caco-2 [11]) | drug sensitivity score (Calu-3 [12]) | drug sensitivity score (HepG2 [13]) | drug sensitivity score (U2OS [14]) | drug sensitivity score (Vero E6 [15])
CN1CCN(C(=O)C2C(C(=O)O)[C@H]3CC[C@@H]2O3)CC1 (stereo not given in full) [LB-100] | 103% | 85.7% | 99.8% | 84.7% | 36.5% | 95.6% | 91.5% | 106% | 92.8% | 86.7% | 98.6% | 97.3% | 109% | 96.6% | 102% | 103% | 92.9% | 99.4% | 96.2% | 95.6% | 98.3% | 101% | 93.1% | 99% | 106% | 1.58 µM | > 10 µM | > 10 µM | > 10 µM | > 10 µM | 5.9 | 0.5 | 0 | 0 | 0
CS(=O)(=O)OCOS(C)(=O)=O [MDMS] | 104% | 105% | 98.1% | 99.7% | 101% | 102% | 103% | 95.9% | 100% | 97.7% | 109% | 97.1% | 112% | 112% | 107% | 100% | 102% | 99.6% | 106% | 104% | 99.8% | 98.4% | 102% | 98.7% | 101% | > 10 µM | > 10 µM | > 10 µM | > 10 µM | > 10 µM | 0 | 0 | 0 | 0 | 0
OCCc1ccc(OCCn2ccnc2)cc1 [MR-948] | 94.9% | 93.1% | 86.3% | 108% | 99.8% | 96.4% | 99% | 97.6% | 105% | 104% | 89.2% | 104% | 96.7% | 106% | 106% | 99.4% | 99.9% | 98.6% | 96% | 96.8% | 90% | 98.6% | 94.8% | 95% | 107% | > 10 µM | > 10 µM | > 10 µM | > 10 µM | > 10 µM | 0 | 0 | 0 | 0 | 0
Cc1cc(-c2nncc3c(C(C)(C)C)c(OCc4ncnn4C)nn23)no1 [MRK-016] | 97.7% | 104% | 96.6% | 89% | 97.2% | 104% | 111% | 108% | 93.9% | 100% | 105% | 94.9% | 104% | 98.1% | 96.8% | 101% | 104% | 99.1% | 101% | 102% | 100% | 102% | 98.5% | 97.6% | 94.5% | > 10 µM | > 10 µM | > 10 µM | > 10 µM | > 10 µM | 0 | 0 | 0 | 0 | 0
